Measurements from publication PMC3231940, “Disposition, metabolism and mass balance of [^14C]apremilast following oral administration” (Xenobiotica; the Fate of Foreign Compounds in Biological …, 2011).
“And” between values parts separate entries of the source, which are not always exact repeats. Equal values may be shown once.

Legend:
[1] = test system: TNF-α production by human peripheral blood mononuclear cells; assay: TNF-α production assay in LPS-stimulated PBMC; type: cell-based; conditions: LPS 1 ng/mL, 16-18 h, ELISA
Protocol: (§1) PDE4 enzyme was isolated from U937 human monocytic cells and used for testing inhibition in a cAMP hydrolysis assay as previously described ([Schafer et al. 2010]). For the TNF-α production assay, human peripheral blood mono-nuclear cells (PBMC) were isolated from buffy coat of normal donor blood units (Blood Center of New Jersey, East Orange, NJ) by density centrifugation over Ficoll Hypaque (Pharmacia, Piscataway, NJ). Cells were cultured in RPMI 1640 (Life Technologies, Grand Island, NY) supplemented with 5% AB^+ human serum (Gemini Bio-products, Woodland, CA), 2-mM L-glutamine, 100-U/mL penicillin and 100-μg/mL streptomycin (Life Technologies). PBMC (2×10^5 cells) were plated in 96-well flat-bottom Costar tissue culture plates (Corning, NY) in duplicate. Cells were stimulated with lipopolysaccharides (LPS) (from Salmonella abortus equi; Sigma cat.no. L-1887, St.Louis, MO) at a final concentration of 1 ng/mL in the absence or presence of compounds. The compounds were dissolved in DMSO (Sigma) and subsequent dilutions were done in culture medium immediately before use. The compounds were added to cells 1 h before LPS stimulation. The cells were incubated for 16-18 h at 37°C in 5% CO2, and super-natants were then collected, diluted with culture medium and assayed for TNF-α levels by enzyme-linked immunosorbent assay (ThermoFisher, Rockford, IL). Fifty percent inhibitory concentrations (IC50) for the PDE4 enzymatic and TNF-α assay were calculated by non-linear regression analysis using Prism 5.1 (GraphPad Software). Regression curves were sigmoidal dose response curves with maximum and minimum constrained to 100% and 0%, respectively.

[2] = Metabolite profiling by HPLC radiochromatography in plasma, urine and faeces; type: in vivo, human; parameters: key to Plasma (% AUC relative to TRA); share of circulating radioactivity / % of dose excreted, urine: ND: not detected; D: detected by MS, but at concentrations too low to accurately quantify by radiochromatography; conditions: for Plasma (% AUC relative to TRA); share of circulating radioactivity: AUC0-t (unchanged drug or metabolite)/AUC0-48 (TRA) * 100%; for Tmax: male; for Tmax / half-life: human; for Plasma Cmax: plasma radioactivity concentrations and radiochromatography; for % of dose excreted, urine: urine collected up to 48-h post-dose; for % of dose excreted, faeces: faeces collected up to 96-h post-dose; for half-life: read-out: Plasma t½ (converted); for Share of the excreted radioactivity / excreted dose: urine plus faeces
Protocol: Individual plasma samples collected from all subjects at 0.5, 1, 2.5, 8, 24, 36 and 48 h post-dose were analysed for metabolite profiling. A pooled sample (equal volume from 0.5,1,2.5,8 and 24 h) from subject 1 was also used for metabolite profiling. Three volumes of acetonitrile were added to each sample, followed by mixing and centrifu-gation. The supernatant was removed and the pellet was washed twice with acetonitrile. The combined superna-tants were evaporated to dryness under a stream of nitrogen. The residues were re-suspended in acetonitrile: 1% formic acid in water (1:1), assayed for extraction recovery and analysed for metabolite profiling.
For each subject, urine samples were pooled using an equal percentage by volume of the 0-4, 4-8, 8-12 and 12-24-h samples. The 24-48-h urine sample from each subject and a pool of the 0-168-h urine samples from subject 1 were also analysed for metabolite profiling. Samples were mixed and centrifuged prior to the supernatants being transferred to fresh tubes for metabolite profiling analysis.
Faecal homogenates for metabolite profiling were pooled using an equal percentage by weight to generate two pools (0-48 h and 48-96 h) for each subject. An additional pool (0-168 h) was prepared using the samples collected from subject 1. An aliquot (approximately 6 g) of each pool was extracted with three volumes of acetonitrile; samples were mixed and centrifuged. The supernatant was removed and the pellets were extracted twice with an additional 12 mL of acetonitrile each time. The combined supernatants were evaporated to dryness under a stream of nitrogen and the residue was re-suspended in a small volume (approximately 400 μL) of acetonitrile: 1% formic acid in water (1:1). Samples were assayed for extraction recovery prior to metabolite profiling.
HPLC analysis for metabolite profiling was performed using a Shimadzu LC-10ADVP (Shimadzu Corp., Columbia, MD) or a Waters 2695 Alliance Separation Module (Waters Corp., Milford, MA) with the autosampler set to an ambient temperature of approximately 22°C. ASPD-10A VPUV-Vis Detector or a Waters 996 Photodiode array detector set to 254 nm was used to detect UV absorbance. [^14C]Apremilast and metabolites were separated using a Phenomenex Luna C 18(2) column (150 × 4.6 mm, 3 μm; Phenomenex, Torrance, CA) equipped with a RP-18 guard column (15×3.2 mm, 7 μm) or using an ACE 3 C18 column (150 × 4.6 mm, 3 μm; Advanced Chromatography Technologies, Aberdeen, Scotland) equipped with an ACE 3 guard column (10×3mm, 3 μm). The mobile phases used were 0.4% formic acid in water; pH 3.2 with ammonium hydroxide (mobile phase A) and acetonitrile (mobile phase B). The column temperature was 30°C and the flow rate was 0.7mL/min. The linear gradient was delivered as follows: 0-5 min to 100% A; 5-20 min to 85% A; 20-30 min hold at 85% A; 30-50 min to 65% A; 50-60 min to 60% A; 60-70 min to 50% A; 70-75 min to 0% A; hold at 0% A until 80 min; return to initial conditions over 2 min.
Radioactivity profiles for excreta were determined by radiochromatography using liquid chromatography-accurate radioisotope counting stop-flow system (LC-ARC; AIM Research Company, Wilmington, DE). Radioactivity was detected using a β-Ram Radioflow detector (IN/US Systems, Brandon, FL) equipped with a 1300-μL liquid cell. Liquid scintillation cocktail and column eluate were mixed at a ratio of 2.5:1. Radioactive peaks were quantified using LC-ARC data handling software. Plasma radioactivity profiles were determined by collecting the column eluate into 96-well Deepwell LumaPlates at a rate of 0.25 min/fraction. The plates were dried and the radioactivity in each well determined using a PerkinElmer TopCount NXT Microplate Scintillation Counter. HPLC radiochromatograms were reconstructed using LC-ARC data handling software.
Pharmacokinetic data were generated by non-compartmental analysis of plasma or whole blood versus time profiles using WinNonlin (version 4.1, Enterprise Edition). […]

[3] = test system: PDE4 enzyme isolated from U937 human monocytic cells; assay: PDE4 inhibition, cAMP hydrolysis assay; type: biochemical; conditions: for IC50: PDE4 from U937 cells, cAMP hydrolysis
Protocol: as §1

[4] = plasma, radiochromatography, single oral 20-mg dose, median and range
[5] = single oral 20-mg dose, mean ± SD
[6] = radiochromatography, single oral 20-mg dose, mean ± SD
[7] = plasma, radiochromatography, single oral 20-mg dose, mean ± SD

Molecule | IC50 [1] | Plasma (% AUC relative to TRA); share of circulating radioactivity [2] | % of dose excreted, urine [2] | IC50 [3] | % of dose excreted, faeces [2] | further results
CCOc1cc([C@@H](CS(C)(=O)=O)N2C(=O)c3cccc(N)c3C2=O)ccc1OC1OC(C(=O)O)C(O)C(O)C1O (stereo partly shown) [Metabolite M14, O-desmethyl, N-deacetyl apremilast glucuronide] | > 10 µM | 4.9% | 4.0 % of dose | > 80 µM |  | Tmax [2, 4]: 2.5 h; Plasma Cmax [2, 5]: 9.4±4.3 ngEq/mL; Plasma AUC0-t [2, 6]: 269±146 ngEq*h/mL
CCOc1cc([C@@H](CS(C)(=O)=O)N2C(=O)c3cccc(NC(=O)CO)c3C2=O)ccc1O [Metabolite M10, acetamide hydroxylated, O-desmethyl apremilast] |  |  |  |  | 1.3 % of dose | 
CC(=O)Nc1cccc(C(=O)O)c1C(=O)O [Metabolite M18, 3-acetamide-phthalic acid] |  |  |  |  | 1.4 % of dose | 
O=C(CO)Nc1cccc(C(=O)O)c1C(=O)O [Metabolite M23, hydroxy 3-acetamide-phthalic acid] |  |  |  |  | 3.0 % of dose | 
CCOc1cc([C@@H](CS(C)(=O)=O)N2C(=O)c3cccc(NC(C)=O)c3C2=O)ccc1O[C@@H]1O[C@H](C(=O)O)[C@@H](O)[C@H](O)[C@H]1O [Metabolite M12, O-desmethyl apremilast glucuronide] | > 10 µM | 38.7% | 34 % of dose and 33.7 % of dose | > 100 µM |  | Plasma (% AUC relative to TRA); share of circulating radioactivity ([2]; listed as O-desmethyl apremilast glucuronide): 39%; half-life [2, 7]: 15.8 ± 3.9 h; Tmax [2, 4]: 2.5 h; Plasma Cmax [2, 5]: 111±36 ngEq/mL; Plasma AUC0-t [2, 6]: 2124±331 ngEq*h/mL; Plasma AUC0-∞ [2, 6]: 2446±416 ngEq*h/mL; Share of the excreted radioactivity / excreted dose [2]: 34%
hydroxylated N-deacetylated apremilast [Metabolite M11] |  | 2.5% |  |  | 1.4 % of dose | Plasma Cmax [2, 5]: 20.2±7.6 ngEq/mL; Plasma AUC0-t [2, 6]: 139±89 ngEq*h/mL; Plasma AUC0-∞ [2, 6]: 232±151 ngEq*h/mL; Plasma t½ [2, 6]: 10.7 ± 10.2 h; Plasma Tmax ([2]; radiochromatography, single oral 20-mg dose, median and range): 1.0(0.5-2.5) h
hydroxylated N-deacetylated, O-desmethyl apremilast [Metabolite M8] |  |  |  |  | 1.0 % of dose | 
CS(=O)(=O)C[C@H](c1ccc(O)c(O)c1)N1C(=O)c2cccc(N)c2C1=O [Metabolite M20, N-deacetylated, O-desmethyl, O-desethyl apremilast] |  |  |  |  | 0.5 % of dose | 
CCOc1cc([C@@H](CS(C)(=O)=O)N2C(=O)c3cccc(NC(C)=O)c3C2=O)ccc1O [Metabolite M3, O-desmethyl apremilast] | 5.6 µM | D | D | 8.3 µM | 5 % of dose and 4.6 % of dose | Share of the excreted radioactivity / excreted dose [2]: > 4%
CCOc1cc([C@@H](CS(C)(=O)=O)N2C(=O)c3cccc(N)c3C2=O)ccc1O [Metabolite M4, N-deacetylated, O-desmethyl apremilast] |  |  |  |  | 2.4 % of dose | 
CCOc1cc([C@@H](CS(C)(=O)=O)N2C(=O)c3cccc(N)c3C2=O)ccc1OC [Metabolite M7, N-deacetyl apremilast] | 0.13 µM | D | D | 0.16 µM | 0.1 % of dose | Concentration in circulation relative to apremilast ([2]; plasma): < 2%; PDE4 and TNF-α inhibition activity compared with apremilast ([3]; both assays, in words): IC50 values similar to those of apremilast
CC(=O)Nc1cccc2c1C(=O)N([C@H](CS(C)(=O)=O)c1ccc(O)c(O)c1)C2=O [Metabolite M19, O-desmethyl, O-desethyl apremilast] |  |  |  |  | 0.8 % of dose | 
COc1ccc([C@@H](CS(C)(=O)=O)N2C(=O)c3cccc(NC(C)=O)c3C2=O)cc1O [Metabolite M5, O-desethyl apremilast] | 4.9 µM |  |  | 44 µM |  | 
COc1ccc([C@@H](CS(C)(=O)=O)NC(=O)c2cccc(NC(C)=O)c2C(=O)O)cc1O [Metabolite M22] |  |  |  |  | 0.6 % of dose | 
COc1ccc([C@@H](CS(C)(=O)=O)N2C(=O)c3cccc(NC(C)=O)c3C2=O)cc1OC1OC(C(=O)O)C(O)C(O)C1O (stereo partly shown) [Metabolite M13] |  | 2.4% | 2.0 % of dose |  |  | Tmax [2, 4]: 2.5 h; Plasma Cmax [2, 5]: 7.5±6.8 ngEq/mL; Plasma AUC0-t [2, 6]: 133±125 ngEq*h/mL
CCOc1cc([C@@H](CS(C)(=O)=O)NC(=O)c2cccc(NC(C)=O)c2C(=O)O)ccc1O [Metabolite M9] |  |  |  |  | 8 % of dose and 7.7 % of dose | Share of the excreted radioactivity / excreted dose [2]: > 4%
CCOc1cc([C@@H](CS(C)(=O)=O)NC(=O)c2cccc(NC(C)=O)c2C(=O)O)ccc1OC [M1/M2] | 77 µM | D | 0.9 % of dose | 120 µM | 0.5 % of dose | 
CCOc1cc([C@@H](CS(C)(=O)=O)N2C(=O)c3cccc(NC(=O)COC4OC(C(=O)O)C(O)C(O)C4O)c3C2=O)ccc1OC (stereo partly shown) [Metabolite M16] | > 10 µM | 6.6% | 0.6 % of dose | 6.5 µM |  | half-life [2, 7]: 11 ± 2.4 h; Tmax [2, 4]: 5.3 h; Plasma Cmax [2, 5]: 27.6±26.0 ngEq/mL; Plasma AUC0-t [2, 6]: 363 ±54 ngEq*h/mL; Plasma AUC0-∞ [2, 6]: 389±91 ngEq*h/mL
CCOc1cc([C@@H](CS(C)(=O)=O)NC(=O)c2cccc(NC(C)=O)c2C(=O)O)ccc1OC1OC(C(=O)O)C(O)C(O)C1O (stereo partly shown) [Metabolite M15] |  |  | 3.3 % of dose |  |  | 
